In patent US20190284136A1, “INDOLINE DERIVATIVES” (ViiV HEALTHCARE UK LIMITED, priority 2016, published 2019) one finds IC50 data, which are given here for 25 compounds.

This assay relates to HIV. Kind of assay: Table 1 IC50 of the examples (assay method not given; patent concerns inhibiting HIV replication). The following applies: Human immunodeficiency virus 1. In kind it is cell-based.
For `COc1cc(OC)cc(C(=O)N2CCc3c2cc(C)c([C@H](OC(C)(C)C)C(=O)O)c3-c2cc(F)c3c(c2C)CCCO3)c1` (atropisomer, axis not shown) [Example 63, (S)-2-(tert-Butoxy)-2-((R)-1-(3,5-dimethoxybenzoyl)-4-(8-fluoro-5-methylchroman-6-yl)-6-methylindolin-5-yl)acetic acid], the concentration for half-maximal inhibition (IC50) (usually the midpoint of a concentration-inhibition curve) was found to be 4 nM.
The figure for `Cc1cc2c(c(-c3cc(F)c4c(c3C)CCCO4)c1[C@H](OC(C)(C)C)C(=O)O)CCN2C(=O)c1ccc(F)cc1C(F)(F)F` (atropisomer, axis not shown) [Example 64, (S)-2-(tert-Butoxy)-2-((R)-1-(4-fluoro-2-(trifluoromethyl)benzoyl)-4-(8-fluoro-5-methylchroman-6-yl)-6-methylindolin-5-yl)acetic acid] is 5 nM.
The compound `Cc1cc2c(c(-c3cc(F)c4c(c3C)CCCO4)c1[C@H](OC(C)(C)C)C(=O)O)CCN2C(=O)C1CCOCC1` (atropisomer, axis not shown) [Example 65, (S)-2-(tert-Butoxy)-2-((R)-4-(8-fluoro-5-methylchroman-6-yl)-6-methyl-1-(tetrahydro-2H-pyran-4-carbonyl)indolin-5-yl)acetic acid] showed a half-inhibitory concentration (IC50) of 378 nM.
The figure for `Cc1cc2c(c(-c3cc(F)c4c(c3C)CCCO4)c1[C@H](OC(C)(C)C)C(=O)O)CCN2C(=O)c1cccc(Cl)c1C` (atropisomer, axis not shown) [Example 66, (S)-2-(tert-Butoxy)-2-((R)-1-(3-chloro-2-methylbenzoyl)-4-(8-fluoro-5-methylchroman-6-yl)-6-methylindolin-5-yl)acetic acid] is 6 nM; for `COc1cccc(C(=O)N2CCc3c2cc(C)c([C@H](OC(C)(C)C)C(=O)O)c3-c2cc(F)c3c(c2C)CCCO3)c1C` (atropisomer, axis not shown) [Example 67, (S)-2-(tert-Butoxy)-2-((R)-4-(8-fluoro-5-methylchroman-6-yl)-1-(3-methoxy-2-methylbenzoyl)-6-methylindolin-5-yl)acetic acid] it is 5 nM; for `Cc1cc2c(c(-c3cc(F)c4c(c3C)CCCO4)c1[C@H](OC(C)(C)C)C(=O)O)CCN2C(=O)c1cc(Cl)ccc1Cl` (atropisomer, axis not shown) [Example 68, (S)-2-(tert-Butoxy)-2-((R)-1-(2,5-dichlorobenzoyl)-4-(8-fluoro-5-methylchroman-6-yl)-6-methylindolin-5-yl)acetic acid] it is 13 nM.
The figure for `Cc1ccc(C)c(C(=O)N2CCc3c2cc(C)c([C@H](OC(C)(C)C)C(=O)O)c3-c2cc(F)c3c(c2C)CCCO3)c1` (atropisomer, axis not shown) [Example 69, (S)-2-(tert-Butoxy)-2-((R)-1-(2,5-dimethylbenzoyl)-4-(8-fluoro-5-methylchroman-6-yl)-6-methylindolin-5-yl)acetic acid] is 5 nM.
Take `Cc1cc2c(c(-c3cc(F)c4c(c3C)CCCO4)c1[C@H](OC(C)(C)C)C(=O)O)CCN2C(=O)c1ccc(Cl)cc1Cl` (atropisomer, axis not shown) [Example 70, (S)-2-(tert-Butoxy)-2-((R)-1-(2,4-dichlorobenzoyl)-4-(8-fluoro-5-methylchroman-6-yl)-6-methylindolin-5-yl)acetic acid]: the 50% inhibitory concentration (IC50) worked out at 5 nM.
Next, `COc1cc(Cl)ccc1C(=O)N1CCc2c1cc(C)c([C@H](OC(C)(C)C)C(=O)O)c2-c1cc(F)c2c(c1C)CCCO2` (atropisomer, axis not shown) [Example 72, (S)-2-(tert-Butoxy)-2-((R)-1-(4-chloro-2-methoxybenzoyl)-4-(8-fluoro-5-methylchroman-6-yl)-6-methylindolin-5-yl)acetic acid]: 7 nM; `Cc1ccc(C(=O)N2CCc3c2cc(C)c([C@H](OC(C)(C)C)C(=O)O)c3-c2cc(F)c3c(c2C)CCCO3)cc1F` (atropisomer, axis not shown) [Example 73, (S)-2-(tert-Butoxy)-2-((R)-1-(3-fluoro-4-methylbenzoyl)-4-(8-fluoro-5-methylchroman-6-yl)-6-methylindolin-5-yl)acetic acid]: 6 nM.
Next, `COc1ccc(C(=O)N2CCc3c2cc(C)c([C@H](OC(C)(C)C)C(=O)O)c3-c2cc(F)c3c(c2C)CCCO3)cc1F` (atropisomer, axis not shown) [Example 74, (S)-2-(tert-butoxy)-2-((R)-1-(3-fluoro-4-methoxybenzoyl)-4-(8-fluoro-5-methylchroman-6-yl)-6-methylindolin-5-yl)acetic acid]: 5 nM; `COc1c(Cl)cccc1C(=O)N1CCc2c1cc(C)c([C@H](OC(C)(C)C)C(=O)O)c2-c1cc(F)c2c(c1C)CCCO2` (atropisomer, axis not shown) [Example 75, (S)-2-(tert-Butoxy)-2-((R)-1-(3-chloro-2-methoxybenzoyl)-4-(8-fluoro-5-methylchroman-6-yl)-6-methylindolin-5-yl)acetic acid]: 6.61 nM.
Next, `Cc1cc2c(c(-c3cc(F)c4c(c3C)CCCO4)c1[C@H](OC(C)(C)C)C(=O)O)CCN2C(=O)c1cncc(F)c1` (atropisomer, axis not shown) [Example 76, (S)-2-(tert-Butoxy)-2-((R)-4-(8-fluoro-5-methylchroman-6-yl)-1-(5-fluoronicotinoyl)-6-methylindolin-5-yl)acetic acid]: 15 nM; `Cc1cc(C)cc(C(=O)N2CCc3c2cc(C)c([C@H](OC(C)(C)C)C(=O)O)c3-c2cc(F)c3c(c2C)CCCO3)c1` (atropisomer, axis not shown) [Example 77, (S)-2-(tert-Butoxy)-2-((R)-1-(3,5-dimethylbenzoyl)-4-(8-fluoro-5-methylchroman-6-yl)-6-methylindolin-5-yl)acetic acid]: 5 nM; `CC(=O)Nc1cccc(C(=O)N2CCc3c2cc(C)c([C@H](OC(C)(C)C)C(=O)O)c3-c2cc(F)c3c(c2C)CCCO3)c1` (atropisomer, axis not shown) [Example 78, (S)-2-((R)-1-(3-Acetamidobenzoyl)-4-(8-fluoro-5-methylchroman-6-yl)-6-methylindolin-5-yl)-2-(tert-butoxy)acetic acid]: 310 nM.
Regarding `COc1cccc(OC)c1C(=O)N1CCc2c1cc(C)c([C@H](OC(C)(C)C)C(=O)O)c2-c1cc(F)c2c(c1C)CCCO2` (atropisomer, axis not shown) [Example 79, (S)-2-(tert-Butoxy)-2-((R)-1-(2,6-dimethoxybenzoyl)-4-(8-fluoro-5-methylchroman-6-yl)-6-methylindolin-5-yl)acetic acid], it took 55 nM to reach half-maximal inhibition (IC50). This IC50 is about 5.6-fold lower than that of the compound before.
`Cc1ccc(F)cc1C(=O)N1CCc2c1cc(C)c([C@H](OC(C)(C)C)C(=O)O)c2-c1cc(F)c2c(c1C)CCCO2` (atropisomer, axis not shown) [Example 80, (S)-2-(tert-Butoxy)-2-((R)-1-(5-fluoro-2-methylbenzoyl)-4-(8-fluoro-5-methylchroman-6-yl)-6-methylindolin-5-yl)acetic acid] showed an IC50 of 4 nM. Compared with the last compound, the IC50 is about 14-fold lower.
The figure for `Cc1cncc(C(=O)N2CCc3c2cc(C)c([C@H](OC(C)(C)C)C(=O)O)c3-c2cc(F)c3c(c2C)CCCO3)c1` (atropisomer, axis not shown) [Example 81, (S)-2-(tert-Butoxy)-2-((R)-4-(8-fluoro-5-methylchroman-6-yl)-6-methyl-1-(5-methylnicotinoyl)indolin-5-yl)acetic acid] is 14 nM.
Next, `Cc1cc2c(c(-c3cc(F)c4c(c3C)CCCO4)c1[C@H](OC(C)(C)C)C(=O)O)CCN2C(=O)c1cc(Cl)cc(Cl)c1` (atropisomer, axis not shown) [Example 82, (S)-2-(tert-Butoxy)-2-((R)-1-(3,5-dichlorobenzoyl)-4-(8-fluoro-5-methylchroman-6-yl)-6-methylindolin-5-yl)acetic acid]: 12 nM; `Cc1cc2c(c(-c3cc(F)c4c(c3C)CCCO4)c1[C@H](OC(C)(C)C)C(=O)O)CCN2C(=O)c1cccc2c1OCCO2` (atropisomer, axis not shown) [Example 83, (S)-2-(tert-Butoxy)-2-((R)-1-(2,3-dihydrobenzo[b][1,4]dioxine-5-carbonyl)-4-(8-fluoro-5-methylchroman-6-yl)-6-methylindolin-5-yl)acetic acid]: 7 nM; `COc1cccc(C(=O)N2CCc3c2cc(C)c([C@H](OC(C)(C)C)C(=O)O)c3-c2cc(F)c3c(c2C)CCCO3)c1OC` (atropisomer, axis not shown) [Example 84, (S)-2-(tert-Butoxy)-2-((R)-1-(2,3-dimethoxybenzoyl)-4-(8-fluoro-5-methylchroman-6-yl)-6-methylindolin-5-yl)acetic acid]: 41 nM.
As for `COc1ccc(C(=O)N2CCc3c2cc(C)c([C@H](OC(C)(C)C)C(=O)O)c3-c2cc(F)c3c(c2C)CCCO3)c(F)c1` (atropisomer, axis not shown) [Example 85, (S)-2-(tert-Butoxy)-2-((R)-1-(2-fluoro-4-methoxybenzoyl)-4-(8-fluoro-5-methylchroman-6-yl)-6-methylindolin-5-yl)acetic acid], the IC50 was determined as 6 nM.
Next, `COc1ccc(C(=O)N2CCc3c2cc(C)c([C@H](OC(C)(C)C)C(=O)O)c3-c2cc(F)c3c(c2C)CCCO3)cc1OC` (atropisomer, axis not shown) [Example 86, (S)-2-(tert-Butoxy)-2-((R)-1-(3,4-dimethoxybenzoyl)-4-(8-fluoro-5-methylchroman-6-yl)-6-methylindolin-5-yl)acetic acid]: 5 nM; `COc1c(C)cccc1C(=O)N1CCc2c1cc(C)c([C@H](OC(C)(C)C)C(=O)O)c2-c1cc(F)c2c(c1C)CCCO2` (atropisomer, axis not shown) [Example 87, (S)-2-(tert-Butoxy)-2-((R)-4-(8-fluoro-5-methylchroman-6-yl)-1-(2-methoxy-3-methylbenzoyl)-6-methylindolin-5-yl)acetic acid]: 5 nM.
`COc1ccc(C(=O)N2CCc3c2cc(C)c([C@H](OC(C)(C)C)C(=O)O)c3-c2cc(F)c3c(c2C)CCCO3)c(OC)c1` (atropisomer, axis not shown) [Example 88, (S)-2-(tert-Butoxy)-2-((R)-1-(2,4-dimethoxybenzoyl)-4-(8-fluoro-5-methylchroman-6-yl)-6-methylindolin-5-yl)acetic acid] gave an IC50 of 5 nM.
